Measured values: patent US7744909B2, “Dispersions for the formulation of slightly or poorly soluble agents” (Abbott GmbH & Co., KG, priority 2000, dated 2010)
In brackets after ≈: the same amount, converted by molar mass.

Columns and labels:
[1] = Additive solubility in oil and water phase versus quantity dissolved in the emulsion; format: physicochemical
Description: Preferably, the quantity of active ingredient dissolved is greater than the additive quantity by a factor of 2, more preferably 5, still more preferably 10 or even greater. The “additive quantity” is determined by dissolving the maximum possible quantity of active ingredient in the separate oily and aqueous phases (dissolving conditions being otherwise identical) corresponding to the constituents in the dispersion (saturation concentration), no further additional organic solvents being used. The dispersion according to the invention contains, in addition to the additive quantity, a superadditive quantity of dissolved active ingredient.
40 g emulsion from Example 1 consist 20% of oil (8 g) and ca. 80% of water (32 g). Thus on the basis of these solubilities, 8×0.0001 mg/ml plus 32×0.01 mg/ml, i.e. in total 0.3208 mg Amphotericin can be dissolved in 40 g emulsion components oil and water (i.e. approx. 0.008 mg/ml emulsion). In the present emulsion according to the invention 0.2 mg/ml emulsion could be incorporated (Example 1) without microscopic crystals of undissolved drug being detectable (Example 12).
Dissolved active ingredient is rapidly available. […] The solubility in water and oil phase amounts to, for example, 0.008 mg/ml in the case of Amphotericin B, the emulsion according to the invention dissolves without detectable crystals e.g. 0.2 mg/ml (Example 1). If 5 mg/ml dispersion is incorporated, the solubility is exceeded (supersaturated system).
(§1) The dispersions contains the active ingredient dissolved in an amount, which is greater than that amount which is the result of the mathematical addition of its maximal solubility in each of the water phase and the oil phase of the emulsion, which “addition amount” is determined under standard conditions (20° C., standard pressure) by dissolving the maximal amount of active ingredient in the separate oil and aqueous phases (maintaining the other dissolution conditions identical) corresponding to the proportions in the dispersion (saturation concentrations).

[2] = Solubility of Amphotericin in standard oils (soya oil, Miglyol 812); format: physicochemical; conditions: oil or lipid
Description: The solubility of Amphotericin in soya oil (Long-chain Triglycerides—LCT) and in Miglyol 812 (Medium-chain Triglycerides—MCT), the standard oils for most commercially available emulsions for parenteral infusion is less than 0.0001 mg/ml.
as §1

[3] = oral administration; cited from earlier work
[4] = Solubility of Amphotericin B in water; format: physicochemical; conditions: for solubility: water
Description: Thus the solubility of Amphotericin B in water is less than 0.001% (<0.01 mg/ml) at pH 6-7, i.e. the pH value of the emulsion. It is true that the solubility of Amphotericin is higher with pH 2 and pH 11 (0.1 mg/ml), however these solutions cannot be administered intravenously.
as §1

With `C[C@@H]1[C@H](O)[C@@H](C)/C=C/C=C/C=C/C=C/C=C/C=C/C=C/[C@H](O[C@@H]2O[C@H](C)[C@@H](O)[C@H](N)[C@@H]2O)C[C@@H]2O[C@](O)(C[C@@H](O)C[C@@H](O)[C@H](O)CC[C@@H](O)C[C@@H](O)CC(=O)O[C@H]1C)C[C@H](O)[C@H]2C(=O)O` [Amphotericin B] the “quantity that can be dissolved in 40 g emulsion components oil and water” value ([1]; 8 g oil plus 32 g water, calculated from the separate solubilities) was 0.3208 mg, the solubility ([1]; 20 °C, oil or lipid, per ml emulsion, calculated from the separate solubilities) was about 8 µg/mL (≈ 8.66 µM) and the “quantity dissolved in the emulsion without detectable crystals” value ([1]; emulsion according to the invention (Example 1), Lipofundin N 20%) was 0.2 mg/mL. The “solubility in water and oil phase (additive quantity)” value ([1]; per ml emulsion, calculated from the separate solubilities) was 8 µg/mL (≈ 8.66 µM), the solubility ([2]; Miglyol 812 (medium-chain triglycerides, MCT), read-out: solubility in Miglyol 812 (Medium-chain Triglycerides, MCT)) was under 0.1 µg/mL and the solubility ([2]; soya oil (long-chain triglycerides, LCT), read-out: solubility in soya oil (Long-chain Triglycerides, LCT)) was under 0.1 µg/mL. The bioavailability [3] was “almost zero”, the solubility in water ([4]; pH 6-7, the pH value of the emulsion) was “less than 0.001%” and the solubility ([4]; pH 2, aqueous buffer, read-out: solubility) was 100 µg/mL (≈ 108 µM). For the same compound, the solubility ([4]; pH 11, aqueous buffer, read-out: solubility) was 100 µg/mL (≈ 108 µM) and the solubility ([4]; pH 6-7, the pH value of the emulsion, read-out: solubility in water) was under 10 µg/mL.
